Results taken from ChEMBL document CHEMBL2057066, “Heteroaromatic Moieties in the Sphingosine Backbone of α-Galactosylceramides for Noncovalent Interactions with CD1d” (ACS Med Chem Lett, 2012).
Calls of active or inactive are those of the source. The calls are words filed in the database; no cut-off is given here.

Columns and labels:
iNKT [1] = experiment: Immunomodulatory activity in mouse hepatic mononuclear cells containing iNKT cells assessed as IL4 release after 72 hrs by ELISA; assay type: functional, cell-based
Mus musculus = experiment: Immunomodulatory activity in C57BL/6 mouse serum assessed as IL4 release at 2 ug/ml, iv after 2 to 16 hrs by ELISa; assay type: functional, organism-based
iNKT [2] = experiment: Immunomodulatory activity in mouse hepatic mononuclear cells containing iNKT cells assessed as IFNgamma release after 72 hrs by ELISA; assay type: functional, cell-based
iNKT [3] = experiment: Immunomodulatory activity in mouse hepatic mononuclear cells containing iNKT cells assessed as IFNgamma release at 25 nM after 72 hrs by ELISA; assay type: functional, cell-based
iNKT [4] = experiment: Immunomodulatory activity in mouse hepatic mononuclear cells containing iNKT cells assessed as IL4 release at 25 nM after 72 hrs by ELISA; assay type: functional, cell-based

| SMILES | Activity (iNKT [1]) | Activity (Mus musculus) | Activity (iNKT [2]) | Activity (iNKT [3]) | Activity (iNKT [4]) |
| --- | --- | --- | --- | --- | --- |
| CCCCCCCCCCCCCCCCCCCCCCCCCC(=O)N[C@@H](CO[C@H]1O[C@H](CO)[C@H](O)[C@H](O)[C@H]1O)[C@H](O)[C@H](O)c1cnn(Cc2ccc(CCCCCC)cc2)c1 | Dose-dependent effect | Active | Dose-dependent effect | – | – |
| CCCCCCCCCCCCCCCCCCCCCCCCCC(=O)N[C@@H](CO[C@H]1O[C@H](CO)[C@H](O)[C@H](O)[C@H]1O)[C@H](O)[C@H](O)CCCCCCCCCCCCCC | – | – | – | Active | Active |
